In PubChem BioAssay (NCI):
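The compound was tested at five concentrations on cells cultured in 96-well plates, with a 48-hour exposure period. TGI is the concentration that stops growth completely.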

Experiments:
Assay in all cases: NCI tumour cell line growth inhibition, 48 h
786-0 renal = system: 786-0 renal
A498 renal = system: A498 renal
A549 NSCLC = system: A549 NSCLC
ACHN renal = system: ACHN renal
CAKI-1 renal = system: CAKI-1 renal
CCRF-CEM leukemia = system: CCRF-CEM leukemia
COLO 205 colon = system: COLO 205 colon
DLD-1 colon = system: DLD-1 colon
DMS 114 small cell lung = system: DMS 114 small cell lung
EKVX NSCLC = system: EKVX NSCLC
HCC-2998 colon = system: HCC-2998 colon
HCT-116 colon = system: HCT-116 colon
HCT-15 colon = system: HCT-15 colon
HL-60(TB) leukemia = system: HL-60(TB) leukemia
HOP-18 NSCLC = system: HOP-18 NSCLC
HOP-62 NSCLC = system: HOP-62 NSCLC
HOP-92 NSCLC = system: HOP-92 NSCLC
HT29 colon = system: HT29 colon
IGROV1 ovarian = system: IGROV1 ovarian
K-562 leukemia = system: K-562 leukemia
KM12 colon = system: KM12 colon
KM20L2 colon = system: KM20L2 colon
LOX IMVI melanoma = system: LOX IMVI melanoma
LXFL 529 NSCLC = system: LXFL 529 NSCLC
M14 melanoma = system: M14 melanoma
M19-MEL melanoma = system: M19-MEL melanoma
MALME-3M melanoma = system: MALME-3M melanoma
MOLT-4 leukemia = system: MOLT-4 leukemia
NCI-H226 lung = system: NCI-H226 lung
NCI-H23 lung = system: NCI-H23 lung
NCI-H460 lung = system: NCI-H460 lung
NCI-H522 lung = system: NCI-H522 lung
OVCAR-3 ovarian = system: OVCAR-3 ovarian
OVCAR-4 ovarian = system: OVCAR-4 ovarian
OVCAR-5 ovarian = system: OVCAR-5 ovarian
OVCAR-8 ovarian = system: OVCAR-8 ovarian
RPMI-8226 leukemia = system: RPMI-8226 leukemia
RXF 393 renal = system: RXF 393 renal
RXF-631 renal = system: RXF-631 renal
SF-268 CNS = system: SF-268 CNS
SF-295 CNS = system: SF-295 CNS
SF-539 CNS = system: SF-539 CNS
SK-MEL-28 melanoma = system: SK-MEL-28 melanoma
SK-MEL-5 melanoma = system: SK-MEL-5 melanoma
SK-OV-3 ovarian = system: SK-OV-3 ovarian
SN12C renal = system: SN12C renal
SNB-19 CNS = system: SNB-19 CNS
SNB-75 CNS = system: SNB-75 CNS
SNB-78 CNS = system: SNB-78 CNS
SR leukemia = system: SR leukemia
SW-620 colon = system: SW-620 colon
TK-10 renal = system: TK-10 renal
U251 CNS = system: U251 CNS
UACC-257 melanoma = system: UACC-257 melanoma
UACC-62 melanoma = system: UACC-62 melanoma
UO-31 renal = system: UO-31 renal
DMS 273 small cell lung = system: DMS 273 small cell lung
SK-MEL-2 melanoma = system: SK-MEL-2 melanoma
XF 498 CNS = system: XF 498 CNS

CC(=O)C1Cn2c(nc3ccccc32)C[Se]1 (stereo not drawn)
TGI (786-0 renal): 9.21 µM
TGI (A498 renal): 32.7 µM
TGI (A549 NSCLC): 36.2 µM
TGI (ACHN renal): 11.4 µM
TGI (CAKI-1 renal): 5.54 µM
TGI (CCRF-CEM leukemia): > 100 µM
TGI (COLO 205 colon): 30.1 µM
TGI (DLD-1 colon): 13 µM
TGI (DMS 114 small cell lung): 4.54 µM
TGI (EKVX NSCLC): 28.7 µM
TGI (HCC-2998 colon): 22.9 µM
TGI (HCT-116 colon): 7.7 µM
TGI (HCT-15 colon): 20.5 µM
TGI (HL-60(TB) leukemia): 5.71 µM
TGI (HOP-18 NSCLC): 5.44 µM
TGI (HOP-62 NSCLC): 5.39 µM
TGI (HOP-92 NSCLC): 4.72 µM
TGI (HT29 colon): 23.2 µM
TGI (IGROV1 ovarian): 6.02 µM
TGI (K-562 leukemia): 31.7 µM
TGI (KM12 colon): 10.7 µM
TGI (KM20L2 colon): 25.8 µM
TGI (LOX IMVI melanoma): 12 µM
TGI (LXFL 529 NSCLC): 10.4 µM
TGI (M14 melanoma): 4.96 µM
TGI (M19-MEL melanoma): 4.07 µM
TGI (MALME-3M melanoma): 5.83 µM
TGI (MOLT-4 leukemia): 6.79 µM
TGI (NCI-H226 lung): 12.5 µM
TGI (NCI-H23 lung): 7.29 µM
TGI (NCI-H460 lung): 16.8 µM
TGI (NCI-H522 lung): 10.3 µM
TGI (OVCAR-3 ovarian): 4.5 µM
TGI (OVCAR-4 ovarian): 11.8 µM
TGI (OVCAR-5 ovarian): 10.4 µM
TGI (OVCAR-8 ovarian): 13.3 µM
TGI (RPMI-8226 leukemia): 62.9 µM
TGI (RXF 393 renal): 5.2 µM
TGI (RXF-631 renal): 7.76 µM
TGI (SF-268 CNS): 11.5 µM
TGI (SF-295 CNS): 10.1 µM
TGI (SF-539 CNS): 4.89 µM
TGI (SK-MEL-28 melanoma): 8.75 µM
TGI (SK-MEL-5 melanoma): 3.61 µM
TGI (SK-OV-3 ovarian): 34 µM
TGI (SN12C renal): 13.8 µM
TGI (SNB-19 CNS): 16 µM
TGI (SNB-75 CNS): 8.02 µM
TGI (SNB-78 CNS): 17.2 µM
TGI (SR leukemia): 6.96 µM
TGI (SW-620 colon): 17.3 µM
TGI (TK-10 renal): 13 µM
TGI (U251 CNS): 3.76 µM
TGI (UACC-257 melanoma): 5.38 µM
TGI (UACC-62 melanoma): 3.64 µM
TGI (UO-31 renal): 8.46 µM

CN(Cc1ccccc1)C(=O)c1ccccc1C(=O)O
TGI (786-0 renal): > 100 µM
TGI (A549 NSCLC): > 100 µM
TGI (ACHN renal): > 100 µM
TGI (CAKI-1 renal): > 100 µM
TGI (CCRF-CEM leukemia): > 100 µM
TGI (COLO 205 colon): > 100 µM
TGI (DLD-1 colon): > 100 µM
TGI (DMS 114 small cell lung): > 100 µM
TGI (DMS 273 small cell lung): > 100 µM
TGI (EKVX NSCLC): > 100 µM
TGI (HCC-2998 colon): > 100 µM
TGI (HCT-116 colon): > 100 µM
TGI (HCT-15 colon): > 100 µM
TGI (HL-60(TB) leukemia): > 100 µM
TGI (HOP-92 NSCLC): > 100 µM
TGI (HT29 colon): > 100 µM
TGI (IGROV1 ovarian): > 100 µM
TGI (K-562 leukemia): > 100 µM
TGI (KM12 colon): > 100 µM
TGI (KM20L2 colon): > 100 µM
TGI (LOX IMVI melanoma): > 100 µM
TGI (LXFL 529 NSCLC): > 100 µM
TGI (M14 melanoma): > 100 µM
TGI (M19-MEL melanoma): > 100 µM
TGI (MALME-3M melanoma): > 100 µM
TGI (MOLT-4 leukemia): > 100 µM
TGI (NCI-H226 lung): > 100 µM
TGI (NCI-H23 lung): > 100 µM
TGI (NCI-H460 lung): > 100 µM
TGI (NCI-H522 lung): > 100 µM
TGI (OVCAR-3 ovarian): > 100 µM
TGI (OVCAR-4 ovarian): > 100 µM
TGI (OVCAR-5 ovarian): > 100 µM
TGI (OVCAR-8 ovarian): > 100 µM
TGI (RPMI-8226 leukemia): > 100 µM
TGI (RXF 393 renal): > 100 µM
TGI (RXF-631 renal): > 100 µM
TGI (SF-268 CNS): > 100 µM
TGI (SF-295 CNS): > 100 µM
TGI (SF-539 CNS): > 100 µM
TGI (SK-MEL-2 melanoma): > 100 µM
TGI (SK-OV-3 ovarian): > 100 µM
TGI (SN12C renal): > 100 µM
TGI (SNB-19 CNS): > 100 µM
TGI (SNB-75 CNS): > 100 µM
TGI (SR leukemia): > 100 µM
TGI (SW-620 colon): > 100 µM
TGI (TK-10 renal): > 100 µM
TGI (U251 CNS): > 100 µM
TGI (UACC-257 melanoma): > 100 µM
TGI (UO-31 renal): > 100 µM
TGI (XF 498 CNS): > 100 µM
